Laboratory results published in patent publication US20250271439A1, “PROTEOMIC SIGNATURE OF PLASMA EXTRACELLULAR VESICLES CLASSIFIES RESPONSE TO DOXORUBICIN AND CANCER” (Washington University, priority 2022, published 2025).

Tests used:
plasma EV proteome = experiment: Label free quantitative proteomics of plasma EVs before versus after doxorubicin treatment; format: in vivo, human; conditions: SARC021 sarcoma cohort; also considering the patient's treatment sensitivity; FIG. 5A
sarcoma patients = experiment: Tumor response to doxorubicin monotherapy assessed by RECIST version 1.1 (SARC021 trial); format: in vivo, human; conditions: two cycles of 75 mg/m^2 doxorubicin, 6 weeks
Experimental: Plasma was acquired from a cohort of 40 sarcoma patients on the doxorubicin monotherapy control arm of the international, open-label, prospective, randomized, phase 3, multicenter SARC021 trial (TH CR-406)^16. SARC021 was conducted at 81 academic or community investigational sites across 13 countries, and one arm of the trial treated patients with doxorubicin alone, the standard of care. Samples were obtained from 8 different sarcoma subtypes in the cohort, including angiosarcoma (AS), epitheloid sarcoma (EPI), leiomyosarcoma (LMS), liposarcoma (LS), myxofibrosarcoma (MFS), malignant peripheral nerve sheath tumor (MPNST), rhabdomyosarcoma (PMRMS), and undifferentiated pleomorphic sarcoma (UPS). The number of patients per sarcoma subtype ranged from 1 to 13 (Table 1).
Plasma for the sarcoma cohort was acquired prior to treatment with two cycles of 75 mg/m^2 doxorubicin, and just prior to cycle 3, for a total treatment time of 6 weeks (FIG. 1A). […]
Doxorubicin treatment and plasma collection: Plasma was obtained from anonymized sarcoma patients on the TH CR-406/SARC021 clinical trial, registered with ClinicalTrials.gov as NCT01440088 and entitled “A Trial of TH-302 in Combination With Doxorubicin Versus Doxorubicin Alone to Treat Patients With Locally Advanced Unresectable or Metastatic Soft Tissue Sarcoma”^84. […] Tumor response was assessed at the end of cycle 2 using RECIST version 1.1^18. […]

Question: `COc1cccc2c1C(=O)c1c(O)c3c(c(O)c1C2=O)C[C@@](O)(C(=O)CO)C[C@@H]3O[C@H]1C[C@H](N)[C@H](O)[C@H](C)O1` [doxorubicin] was tested. Which “change in EV protein abundance, plasma samples collected before and after treatment” value (plasma EV proteome) did it give?
Answer: The value was “no statistically significant change”.

Question: And the “sarcoma patients considered treatment resistant” value (sarcoma patients; cohort of 40 sarcoma patients)?
Answer: The value was 37.5%.

Question: And the “number of sarcoma patients considered treatment resistant” value (sarcoma patients; of 40 sarcoma patients)?
Answer: The value was 15.
